Test results from ChEMBL document CHEMBL5244273, “Tuberculosis: An Overview of the Immunogenic Response, Disease Progression, and Medicinal Chemistry Efforts in the Last Decade toward the Development of Potential Drugs for Extensively Drug-Resistant Tuberculosis Strains” (J Med Chem, 2021).
≈ marks a conversion by molar mass, not a printed value.

The compounds below were run on Mycobacterium tuberculosis (assay: Antimycobacterial activity against Mycobacterium tuberculosis H37Rv assessed as inhibition of bacterial growth by resazurin dye based fluorescence analysis).
Format: functional

| SMILES | MIC [µM] |
| --- | --- |
| O=S(=O)(NCCO)c1ccc(-c2nnn(Cc3ccc(Cl)cn3)n2)cc1 | 0.1 (≈ 0.0395 µg/mL) |
| N#CNS(=O)(=O)c1ccc(-c2nnn(Cc3ccc(F)cn3)n2)cc1 | 0.1 (≈ 0.0359 µg/mL) |
| N#CCNS(=O)(=O)c1ccc(-c2cn(Cc3ccncc3)nn2)cc1 | 0.1 (≈ 0.0354 µg/mL) |
| Cc1ccc(Cn2nnc(-c3ccc(S(=O)(=O)NCC(N)=O)cc3)n2)nc1 | 0.1 (≈ 0.0387 µg/mL) |
| CNS(=O)(=O)c1ccc(-c2nnn(Cc3ccc(F)cc3)n2)cc1 | 0.1 (≈ 0.0347 µg/mL) |
| O=S(=O)(NC(CO)CO)c1ccc(-c2nnn(Cc3ccc(F)cc3)n2)cc1 | 0.1 (≈ 0.0407 µg/mL) |
| O=S(=O)(NCCO)c1ccc(-c2nnn(Cc3ccc(F)cn3)n2)c(Cl)c1 | 0.1 (≈ 0.0413 µg/mL) |
| O=S(=O)(NCCO)c1ccc(-c2nnn(CC3CCCCO3)n2)c(F)c1F (stereo not drawn) | 0.1 (≈ 0.0403 µg/mL) |
| CC(c1ccc(F)cc1)n1nnc(-c2ccc(S(=O)(=O)NCCO)cc2)n1 (stereo not drawn) | 0.1 (≈ 0.0391 µg/mL) |
| Cc1cc(S(=O)(=O)NCCO)ccc1-c1nnn(CC2CCCCO2)n1 (stereo not drawn) | 0.1 (≈ 0.0381 µg/mL) |
| O=S(=O)(NCC(O)CO)c1ccc(-c2nnn(Cc3ccc(F)cc3)n2)cc1 (stereo not drawn) | 0.1 (≈ 0.0407 µg/mL) |
| COc1cc(-c2nnn(Cc3ccncc3)n2)ccc1S(=O)(=O)NCC#N | 0.1 (≈ 0.0385 µg/mL) |
| COc1cc(-c2nnn(Cc3ccc(F)cc3)n2)ccc1S(=O)(=O)NCCO | 0.1 (≈ 0.0407 µg/mL) |
| CC(c1ccc(F)cc1)n1nnc(-c2ccc(S(=O)(=O)NCC(N)=O)cc2)n1 (stereo not drawn) | 0.1 (≈ 0.0404 µg/mL) |
| O=S(=O)(NCCO)c1ccc(-c2cn(Cc3ccc(F)cn3)nn2)cc1 | 0.1 (≈ 0.0377 µg/mL) |
| NC(=O)CNS(=O)(=O)c1ccc(-c2nnn(Cc3ccc(Cl)cn3)n2)cc1 | 0.1 (≈ 0.0408 µg/mL) |
| CCc1ccc(Cn2nnc(-c3ccc(S(=O)(=O)NCCO)cc3)n2)cc1 | 0.1 (≈ 0.0387 µg/mL) |
| O=S(=O)(NCCO)c1ccc(-c2nnn(Cc3ccc(C(F)(F)F)cc3)n2)cc1 | 0.1 (≈ 0.0427 µg/mL) |
| O=S(=O)(NCCO)c1c(F)cc(-c2nnn(Cc3ccc(F)cn3)n2)cc1F | 0.1 (≈ 0.0414 µg/mL) |
| COc1cc(-c2nnn(CC3CCC(F)(F)CC3)n2)ccc1S(=O)(=O)NCC(N)=O | 0.1 (≈ 0.0444 µg/mL) |
| C[C@H](c1ccc(F)cn1)n1nnc(-c2ccc(S(=O)(=O)NCCO)cc2)n1 | 0.1 (≈ 0.0392 µg/mL) |
| Cc1cc(-c2nnn(CC3CCCCO3)n2)ccc1S(=O)(=O)NCCO (stereo not drawn) | 0.1 (≈ 0.0381 µg/mL) |
| COc1ccc(Cn2nnc(-c3ccc(S(=O)(=O)NCCO)c(OC)c3)n2)nc1 | 0.1 (≈ 0.042 µg/mL) |
| N#CCNS(=O)(=O)c1ccc(-c2nnn(Cc3ccncc3)n2)cc1 | 0.1 (≈ 0.0355 µg/mL) |
| O=S(=O)(NCCO)c1ccc(-c2nnn(CC3CCOCC3)n2)cc1 | 0.1 (≈ 0.0367 µg/mL) |
| C[C@@H](O)CNS(=O)(=O)c1ccc(-c2nnn(CC3CCC(F)(F)CC3)n2)cc1 | 0.1 (≈ 0.0415 µg/mL) |
| COc1cc(-c2nnn(Cc3ccc(C#N)cn3)n2)ccc1S(=O)(=O)NCCO | 0.1 (≈ 0.0415 µg/mL) |

| SMILES | MIC [µM] |
| --- | --- |
| Cc1cccc(Cn2nnc(-c3ccc(S(=O)(=O)NCCO)cc3)n2)n1 | 0.1 (≈ 0.0374 µg/mL) |
| COc1ccc(Cn2nnc(-c3ccc(S(=O)(=O)NCCO)cc3)n2)cc1 | 0.1 (≈ 0.0389 µg/mL) |
| COc1ccc(Cn2nnc(-c3ccc(S(=O)(=O)NCC(N)=O)cc3)n2)cc1 | 0.1 (≈ 0.0402 µg/mL) |
| CCOc1ccc(Cn2nnc(-c3ccc(S(=O)(=O)NCCO)cc3)n2)cc1 | 0.1 (≈ 0.0403 µg/mL) |
| O=S(=O)(NCCO)c1c(F)cc(-c2nnn(CC3CCCCO3)n2)cc1F (stereo not drawn) | 0.1 (≈ 0.0403 µg/mL) |
| C[C@@H](O)CNS(=O)(=O)c1ccc(-c2nnn(Cc3ccc(F)cc3)n2)cc1 | 0.1 (≈ 0.0391 µg/mL) |
| Cc1ccc(Cn2nnc(-c3ccc(S(=O)(=O)NCC(N)=O)cc3)n2)cc1 | 0.1 (≈ 0.0386 µg/mL) |
| Cc1cc(S(=O)(=O)NCCO)ccc1-c1nnn(Cc2ccc(F)cn2)n1 | 0.1 (≈ 0.0392 µg/mL) |
| CC(c1ccc(F)cc1)n1cc(-c2ccc(S(=O)(=O)NCCO)cc2)nn1 (stereo not drawn) | 0.1 (≈ 0.039 µg/mL) |
| N#CCNS(=O)(=O)c1ccc(-c2nnn(Cc3cnccn3)n2)cc1 | 0.1 (≈ 0.0356 µg/mL) |
| N#CCNS(=O)(=O)c1ccc(-c2nnn(CC3CCOCC3)n2)cc1 | 0.1 (≈ 0.0362 µg/mL) |
| O=S(=O)(NCCO)c1ccc(-c2nnn(Cc3ccc(F)cn3)n2)cc1 | 0.1 (≈ 0.0378 µg/mL) |
| Cc1ccc(Cn2nnc(-c3ccc(S(=O)(=O)NCCO)cc3)n2)cn1 | 0.1 (≈ 0.0374 µg/mL) |
| Cc1cc(Cn2nnc(-c3ccc(S(=O)(=O)NCC(N)=O)cc3)n2)ccn1 | 0.1 (≈ 0.0387 µg/mL) |
| NC(=O)CNS(=O)(=O)c1ccc(-c2cn(Cc3ccc(F)cc3)nn2)cc1 | 0.1 (≈ 0.0389 µg/mL) |
| O=S(=O)(NCCO)c1ccc(-c2nnn(Cc3ccc(C(F)F)cc3)n2)cc1 | 0.1 (≈ 0.0409 µg/mL) |
| CNS(=O)(=O)c1ccc(-c2nnn(Cc3ccc(C#N)cc3)n2)cc1 | 0.1 (≈ 0.0354 µg/mL) |
| COc1ccc(Cn2nnc(-c3ccc(S(=O)(=O)NCC#N)cc3)n2)cn1 | 0.1 (≈ 0.0385 µg/mL) |
| O=S(=O)(NCCO)c1ccc(-c2nnn(CC3CCCCO3)n2)cc1F (stereo not drawn) | 0.1 (≈ 0.0385 µg/mL) |
| N#Cc1ccc(Cn2cc(-c3ccc(S(=O)(=O)NCCO)cc3)nn2)cc1 | 0.1 (≈ 0.0383 µg/mL) |
| C[C@@H](O)CNS(=O)(=O)c1ccc(-c2nnn(Cc3ccncc3)n2)cc1 | 0.1 (≈ 0.0374 µg/mL) |
| C[C@@H](O)CNS(=O)(=O)c1ccc(-c2nnn(Cc3ccc(F)cn3)n2)cc1 | 0.1 (≈ 0.0392 µg/mL) |
| COC(=O)CNS(=O)(=O)c1ccc(-c2nnn(Cc3ccncc3)n2)cc1 | 0.1 (≈ 0.0388 µg/mL) |
| O=S(=O)(NCCO)c1ccc(-c2nnn(Cc3ccc(F)cc3)n2)cc1F | 0.1 (≈ 0.0395 µg/mL) |
| COc1cc(-c2nnn(Cc3ccc(F)cn3)n2)ccc1S(=O)(=O)NCCO | 0.1 (≈ 0.0408 µg/mL) |
| CNS(=O)(=O)c1ccc(-c2nnn(Cc3ccncc3)n2)cc1OC | 0.1 (≈ 0.036 µg/mL) |
